The values that follow come from patent US20220257557A1, “PHARMACEUTICAL COMPOSITION FOR PREVENTING OR TREATING NEUROLOGICAL DISEASES” (GLACEUM INC., priority 2019, published 2022).

The subject of assay [1] is BV2 cells. Kind of assay: NO and PGE2 production after LPS. It is filed as cell-based. Particulars: 3 h pretreatment (Table 3 amounts), LPS 1 μg/ml 24 h. As to the method: (§1) RAW264.7 cells or BV2 cells (5×10^5 cells/well) were dispensed in DMEM containing 10% heat-inactivated FBS, 10 IU/mL penicillin G, 100 μg/mL streptomycin and 2 mM L-glutamine and cultured in a 5% CO2 incubator at a temperature of 37° C.
(§2) The compound of Formula III-3, III-4, V-3, III-1, IV-1, V-1, IV-2, V-2 or II-2 was added to the RAW264.7 cells or BV2 cells, and the toxicities of the compounds were determined by MTT assay.
(§3) The pretreated cells of Experimental Example 4-1 were treated with 1 μg/ml of LPS for 24 hours, and then the expression levels of iNOS and COX-2 were observed through Western blot, and the production of NO and PGE2 was measured.

The subject of assay [2] is RAW264.7 cells. As to the kind of experiment: NO and PGE2 production after LPS. The format is cell-based. Particulars: 3 h pretreatment (Table 3 amounts), LPS 1 μg/ml 24 h. As for the experimental part: as §1, §2, §3
Assay [3] has as its system BV2 cells. As to the kind of experiment: Transcription of NF-κB protein (p65, p50) into nucleus after LPS (Western blot). The conditions noted are these: 3 h pretreatment (Table 3 amounts), LPS 1 μg/ml 1 h. It is filed as cell-based. As to the method: as §1, §2
(§4) The pretreated cells of Experimental Example 4-1 were treated with 1 μg/ml of LPS for 1 hour, and then the level of transcription of NF-κB protein into the nucleus of each of p65 and p50 was analyzed through Western blot.

The subject of assay [4] is RAW264.7 cells. The assay is described as above. The format is cell-based. The conditions noted are these: 3 h pretreatment (Table 3 amounts), LPS 1 μg/ml 1 h. As to the method:
RAW264.7 cells or BV2 cells (5×10^5 cells/well) were dispensed in DMEM containing 10% heat-inactivated FBS, 10 IU/mL penicillin G, 100 μg/mL streptomycin and 2 mM L-glutamine and cultured in a 5% CO2 incubator at a temperature of 37° C. […]
as §4

The subject of assay [5] is BV2 cells. Kind of assay: iNOS and COX-2 expression after LPS (Western blot). The format is cell-based. The conditions noted are these: 3 h pretreatment (Table 3 amounts), LPS 1 μg/ml 24 h. As for the experimental part: as §1, §2, §3
The test system of assay [6] is RAW264.7 cells. Kind of assay: iNOS and COX-2 expression after LPS (Western blot). Particulars: 3 h pretreatment (Table 3 amounts), LPS 1 μg/ml 24 h. It is filed as cell-based. As to the method: as §1, §2, §3
Assay [7] relates to BV2 cells. As to the kind of experiment: IL-1β, IL-6 and TNF-α mRNA expression after LPS (RT-PCR). It is filed as cell-based. Particulars: 3 h pretreatment (Table 3 amounts), LPS 1 μg/ml 6 h. As for the experimental part: as §1, §2
(§5) The pretreated cells of Experimental Example 4-1 were treated with 1 μg/ml of LPS for 6 hours, and then the mRNA expression level of the cytokine IL-1β, IL-6 or TNF-α produced in the inflammatory response was analyzed using RT-PCR.

Assay [8] relates to RAW264.7 cells. The description is as above. It is filed as cell-based. Particulars: 3 h pretreatment (Table 3 amounts), LPS 1 μg/ml 6 h. As for the experimental part:
as §1, §2, §5

Assay [9] deals with T1, rePON1 (PON1, paraoxonase 1) (Homo sapiens, UniProt P27169).
T1 construct: purchased Thermo Corp. RP-75678
As to the kind of experiment: Prevention of inhibition of PON1 activity by oxidized linolenic acid (TBBL substrate). It is filed as biochemical. Particulars: for activity at 30 µM: 30 μM compound with rePON1 30 min, then oxidized linolenic acid 2 h, TBBL substrate, normal control 100, negative control 73.64; for extent to which inhibition of rePON1 activity was prevented, compared with glabridin: compound 30 μM vs glabridin 30 μM; for extent to which inhibition of rePON1 activity was prevented, compared with glabridin / inhibition of rePON1 activity by oxidized linolenic acid: result in words; for inhibition of rePON1 activity by oxidized linolenic acid: compound 30 μM. As to the method:
Based on the fact that the activity of PON1 is inhibited when PON1 is treated with oxidized linolenic acid, an experiment was conducted to confirm the prevention of inhibition of PON1 activity. The activity of PON1 was measured using TBBL (5-thiobutyl butyrolactones) as a substrate.
Specifically, after 9.6 μl of 50 mM Tris-HCl containing 1 mM CaCl2 was added to each of […] Eppendorf tubes, 0.2 μl of each of the compounds of Formulas III-1, IV-1, V-1, IV-2, V-2, II-1, IV-3, V-3, III-2, IV-4, V-4, II-2 and III-3 and glabridine was added to each tube so that the concentration thereof was 30 μM. 0.2 μl of rePON1 (RP-75678, Thermo Corp.) was added to each of the 12 tubes and mixed. Thereafter, each of the mixtures was allowed to react at room temperature for 30 minutes, and 0.5 μl of 1 mM oxidized linolenic acid (OX-LA) dissolved in DMSO was added thereto in order to inhibit rePON1 activity, followed by reaction at room temperature for 2 hours, thus preparing solutions (I).
25 μl of 0.5 mM DTNB dissolved in 50 mM Tris-HCl containing 1 mM CaCl2 was dispensed into each well of a 384-well plate, and then 10 μl of each of the solutions (I) was dispensed into each well, and 20 μl of 2 mM TBBL dissolved in 50 mM Tris-HCl containing 1 mM CaCl2 was added to each well, thus preparing samples. The absorbance of each of the samples at 420 nm was measured using a spectrometer (SpectraMax M2) at 37° C. every 2 minutes for 1 hour.
In addition, a negative control was prepared in the same manner as the above-described method, except that, for the preparation of a solution, 0.2 μl of DMSO was added instead of the compounds of Formulas III-1, IV-1, V-1, IV-2, V-2, II-1, IV-3, V-3, III-2, IV-4, V-4, II-2 and III-3 and glabridin. Furthermore, a normal control was prepared in the same manner as the above-described method, except that, for the preparation of a solution, 0.2 μl of DMSO was added instead of the above-described compounds and glabridin and that oxidized linolenic acid was not added. The absorbance of each of the negative control and the normal control was measured.
Using SoftMax Pro software, the activity of PON1 was calculated from the absorbance using the following Equation 1, and the results are shown in Table 1 below.
Activity=(absorbancesample−absorbanceblank)/(absorbancePON1−absorbanceblank)*100 [Equation 1]

T1 sequence (P27169 whole entry): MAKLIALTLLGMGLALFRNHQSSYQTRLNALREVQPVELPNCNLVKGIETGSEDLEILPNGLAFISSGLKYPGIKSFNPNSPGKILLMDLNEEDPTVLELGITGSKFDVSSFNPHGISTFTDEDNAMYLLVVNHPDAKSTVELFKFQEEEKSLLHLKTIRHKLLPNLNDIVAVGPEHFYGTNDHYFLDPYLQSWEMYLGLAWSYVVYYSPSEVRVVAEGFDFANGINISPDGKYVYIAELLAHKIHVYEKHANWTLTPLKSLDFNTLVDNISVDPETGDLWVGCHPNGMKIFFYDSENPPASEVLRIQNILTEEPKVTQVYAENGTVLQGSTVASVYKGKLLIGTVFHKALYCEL

As for `CCCc1ccc(C2COc3c(ccc4c3CCC(C)(C)O4)C2)c(O)c1` (stereo not drawn) [Formula III-4, 2-(8,8-dimethyl-2,3,4,8,9,10-hexahydropyrano[2,3-f]chromen-3-yl)-5-propylphenol], in [1], the “production of NO” value is “concentration-dependently decreased” and the “production of PGE2” value was “concentration-dependently decreased”. Moreover, in [2], the “production of NO” value is reported as “concentration-dependently decreased” and the “production of PGE2” value is “concentration-dependently decreased”. In assay [3], the “level of transcription of NF-κB protein into the nucleus, p50” value (from here on “level of transcription … p50”) is listed as “concentration-dependently decreased” and the “level of transcription of NF-κB protein into the nucleus, p65” value (“level of transcription … p65” for short) was “concentration-dependently decreased”. Further, in assay [4], the “level of transcription … p50” value is “concentration-dependently decreased” and the “level of transcription … p65” value is given as “concentration-dependently decreased”. In assay [5], the “expression level of COX-2” value was “concentration-dependently decreased” and the “expression level of iNOS” value was “concentration-dependently decreased”. Besides, in assay [6], the “expression level of COX-2” value is reported as “concentration-dependently decreased” and the “expression level of iNOS” value is listed as “concentration-dependently decreased”. Further, in assay [7], the “mRNA expression level of IL-1β” value was “concentration-dependently decreased”, the “mRNA expression level of IL-6” value is “concentration-dependently decreased” and the “mRNA expression level of TNF-α” value was “concentration-dependently decreased”. In addition, in assay [8], the “mRNA expression level of IL-1β” value is reported as “concentration-dependently decreased”, the “mRNA expression level of IL-6” value is recorded as “concentration-dependently decreased” and the “mRNA expression level of TNF-α” value was “concentration-dependently decreased”.
For the molecule `CCOc1cc(O)ccc1C1COc2c(ccc3c2CCC(C)(C)O3)C1` (stereo not drawn) [Formula III-2, 4-(8,8-dimethyl-2,3,4,8,9,10-hexahydropyrano[2,3-f]chromen-3-yl)-3-ethoxyphenol], in assay [9], the activity at 30 µM turned out to be 83.8%; the “extent to which inhibition of rePON1 activity was prevented, compared with glabridin” value was “greater”; the “inhibition of rePON1 activity by oxidized linolenic acid” value (“inhibition … by oxidized linolenic acid” for short) was “prevented”.
For `CCCOc1ccc([C@H]2COc3c(ccc4c3CCC(C)(C)O4)C2)c(O)c1` [Formula V-2, (S)-2-(8,8-dimethyl-2,3,4,8,9,10-hexahydropyrano[2,3-f]chromen-3-yl)-5-propoxyphenol], in assay [1], the “production of NO” value was “concentration-dependently decreased” and the “production of PGE2” value is on record as “concentration-dependently decreased”. In addition, in assay [2], the “production of NO” value was “concentration-dependently decreased” and the “production of PGE2” value is on record as “concentration-dependently decreased”. Further, in assay [3], the “level of transcription … p50” value is “concentration-dependently decreased” and the “level of transcription … p65” value is “concentration-dependently decreased”. Also, in assay [4], the “level of transcription … p50” value is recorded as “concentration-dependently decreased” and the “level of transcription … p65” value is given as “concentration-dependently decreased”. Also, in assay [5], the “expression level of COX-2” value is given as “concentration-dependently decreased” and the “expression level of iNOS” value is on record as “concentration-dependently decreased”. Moreover, in assay [6], the “expression level of COX-2” value is listed as “concentration-dependently decreased” and the “expression level of iNOS” value is “concentration-dependently decreased”. Moreover, in assay [9], the activity at 30 µM was found to be 89.4%; the “extent to which inhibition of rePON1 activity was prevented, compared with glabridin” value is on record as “greater”; the “inhibition … by oxidized linolenic acid” value was “prevented”. In [7], the “mRNA expression level of IL-1β” value is “concentration-dependently decreased”, the “mRNA expression level of IL-6” value was “concentration-dependently decreased” and the “mRNA expression level of TNF-α” value is reported as “concentration-dependently decreased”. Also, in assay [8], the “mRNA expression level of IL-1β” value is “concentration-dependently decreased”, the “mRNA expression level of IL-6” value is “concentration-dependently decreased” and the “mRNA expression level of TNF-α” value is “concentration-dependently decreased”.
Take `CCCCOc1ccc([C@@H]2COc3c(ccc4c3CCC(C)(C)O4)C2)c(O)c1` [Formula IV-4, (R)-2-(8,8-dimethyl-2,3,4,8,9,10-hexahydropyrano[2,3-f]chromen-3-yl)-5-butoxyphenol]: in [9], the activity at 30 µM worked out at 94.1%; the “extent to which inhibition of rePON1 activity was prevented, compared with glabridin” value is listed as “greater”; the “inhibition … by oxidized linolenic acid” value was “prevented”.
On the same counts, the results for `CC1(C)C=Cc2c(ccc3c2OCC(c2ccc(O)cc2O)=C3)O1` [Formula II-1, 4-(8,8-dimethyl-2,8-dihydropyrano[2,3-f]chromen-3-yl)benzene-1,3-diol] are 85.9%, “greater” and “prevented”.
Taken in the same sequence, the figures for `CCCc1ccc([C@@H]2COc3c(ccc4c3CCC(C)(C)O4)C2)c(O)c1` [Formula IV-3, (R)-2-(8,8-dimethyl-2,3,4,8,9,10-hexahydropyrano[2,3-f]chromen-3-yl)-5-propylphenol] were 90.6%, “greater” and “prevented”.
On the same counts, the results for `CCCCOc1ccc([C@H]2COc3c(ccc4c3CCC(C)(C)O4)C2)c(O)c1` [Formula V-4, (S)-2-(8,8-dimethyl-2,3,4,8,9,10-hexahydropyrano[2,3-f]chromen-3-yl)-5-butoxyphenol] are 94.9%, “greater” and “prevented”.
